Measured values from ChEMBL document CHEMBL1153098, “Discovery of 2-arylthieno[3,2-d]pyrimidines containing 8-oxa-3-azabi-cyclo[3.2.1]octane in the 4-position as potent inhibitors of mTOR with selectivity over PI3K” (Bioorg Med Chem Lett, 2010).

How the values were obtained:
[1] = system: LNCaP; assay: Cytotoxicity against human LNCAP cells; format: functional, cell-based
[2] = target: Phosphatidylinositol 4,5-bisphosphate 3-kinase catalytic subunit alpha isoform (Homo sapiens, UniProt P42336); assay: Inhibition of PI3Kalpha
Sequence of Phosphatidylinositol 4,5-bisphosphate 3-kinase catalytic subunit alpha isoform (P42336 whole entry, canonical isoform): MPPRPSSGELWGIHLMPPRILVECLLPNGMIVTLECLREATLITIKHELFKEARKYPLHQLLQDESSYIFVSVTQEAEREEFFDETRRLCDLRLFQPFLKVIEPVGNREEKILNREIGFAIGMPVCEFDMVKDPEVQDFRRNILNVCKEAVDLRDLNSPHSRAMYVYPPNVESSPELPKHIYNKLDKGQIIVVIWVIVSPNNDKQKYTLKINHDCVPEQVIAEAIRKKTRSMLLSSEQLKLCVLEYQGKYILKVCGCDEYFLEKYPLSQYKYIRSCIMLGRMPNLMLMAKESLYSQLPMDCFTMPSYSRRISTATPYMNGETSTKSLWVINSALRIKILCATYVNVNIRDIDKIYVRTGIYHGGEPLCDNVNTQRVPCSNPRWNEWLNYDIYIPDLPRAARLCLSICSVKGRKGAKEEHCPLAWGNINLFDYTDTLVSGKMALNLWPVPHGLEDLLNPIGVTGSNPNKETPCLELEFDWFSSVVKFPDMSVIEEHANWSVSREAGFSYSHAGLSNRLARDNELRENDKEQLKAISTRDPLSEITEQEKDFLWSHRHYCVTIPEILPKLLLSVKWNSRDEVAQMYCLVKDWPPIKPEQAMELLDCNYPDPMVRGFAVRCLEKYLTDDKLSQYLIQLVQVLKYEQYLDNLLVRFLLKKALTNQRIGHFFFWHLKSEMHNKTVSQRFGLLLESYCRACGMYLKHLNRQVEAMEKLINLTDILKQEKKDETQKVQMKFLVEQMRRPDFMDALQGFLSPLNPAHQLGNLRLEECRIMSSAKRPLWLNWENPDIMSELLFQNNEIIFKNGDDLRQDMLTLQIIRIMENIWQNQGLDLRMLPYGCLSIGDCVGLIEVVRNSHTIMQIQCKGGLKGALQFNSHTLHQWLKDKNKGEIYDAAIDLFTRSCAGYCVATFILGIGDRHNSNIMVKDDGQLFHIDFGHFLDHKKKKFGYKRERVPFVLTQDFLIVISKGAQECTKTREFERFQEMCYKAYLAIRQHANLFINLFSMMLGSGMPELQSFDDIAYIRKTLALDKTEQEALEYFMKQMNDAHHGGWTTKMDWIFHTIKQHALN

[3] = Selectivity index, ratio of IC50 for PI3Kalpha to IC50 for mTOR
[4] = target: Serine/threonine-protein kinase mTOR (Homo sapiens, UniProt P42345); assay: Inhibition of mTOR

| SMILES | IC50 [1] [nM] | IC50 [2] [nM] | Ratio IC50 [3] | IC50 [4] [nM] |
| --- | --- | --- | --- | --- |
| CS(=O)(=O)N1CCN(Cc2cc3nc(-c4ccc(NC(=O)Nc5ccncc5)cc4)nc(N4CC5CCC(C4)O5)c3s2)CC1 | 120 | 8.3 | 19 | – |
| O=C(Nc1ccccc1)Nc1ccc(-c2nc(N3CC4CCC(C3)O4)c3sccc3n2)cc1 | – | – | – | 1.25 |
| CN1CCN(Cc2cc3nc(-c4ccc(NC(=O)NC5CC5)cc4)nc(N4CC5CCC(C4)O5)c3s2)CC1 | 400 | – | 56 | 16 |
| O=C(Nc1ccc(-c2nc(N3CC4CCC(C3)O4)c3sccc3n2)cc1)Nc1cccnc1 | 27 | – | 410 | 0.29 |
| CNC(=O)Nc1ccc(-c2nc(N3CC4CCC(C3)O4)c3sc(CN4CCN(C)CC4)cc3n2)cc1 | – | – | – | 20 |
| CNC(=O)Nc1ccc(-c2nc(N3CC4CCC(C3)O4)c3sc(CN4CCN(S(C)(=O)=O)CC4)cc3n2)cc1 | 120 | – | 33 | – |
| COC(=O)Nc1ccc(-c2nc(N3CC4CCC(C3)O4)c3sccc3n2)cc1 | 1850 | – | 549 | 11 |
| CS(=O)(=O)N1CCN(Cc2cc3nc(-c4ccc(NC(=O)NC5CC5)cc4)nc(N4CC5CCC(C4)O5)c3s2)CC1 | 32 | – | 176 | 1 |
| CCNC(=O)Nc1ccc(-c2nc(N3CC4CCC(C3)O4)c3sccc3n2)cc1 | – | – | – | 0.7 |
| c1cc2cc(-c3nc(N4CC5CCC(C4)O5)c4sccc4n3)ccc2[nH]1 | 1350 | – | 392 | – |
| CN1CCN(Cc2cc3nc(-c4ccc(NC(=O)Nc5cccnc5)cc4)nc(N4CC5CCC(C4)O5)c3s2)CC1 | 148 | – | 31 | – |
| CNC(=O)Nc1ccc(-c2nc(N3CC4CCC(C3)O4)c3sccc3n2)cc1 | 85 | – | 492 | 0.9 |
| CS(=O)(=O)N1CCN(Cc2cc3nc(-c4ccc(NC(=O)Nc5cccnc5)cc4)nc(N4CC5CCC(C4)O5)c3s2)CC1 | – | – | – | 0.6 |
| Nc1ncc(-c2nc(N3CCOCC3)c3sccc3n2)cn1 | 680 | 8.5 | 0.14 | 61 |
| Nc1ncc(-c2nc(N3CC4CCC(C3)O4)c3sccc3n2)cn1 | 1200 | – | 4.4 | 57 |
| Nc1ccc(-c2nc(N3CC4CCC(C3)O4)c3sccc3n2)cn1 | 1250 | – | 51 | 35 |
| Oc1ccc(-c2nc(N3CC4CCC(C3)O4)c3sccc3n2)cc1 | – | – | – | 32 |
| O=C(NCCO)Nc1ccc(-c2nc(N3CC4CCC(C3)O4)c3sccc3n2)cc1 | – | – | – | 0.34 |
| CC(=O)Nc1ccc(-c2nc(N3CC4CCC(C3)O4)c3sccc3n2)cc1 | 1700 | – | 165 | 26.5 |
| O=C(Nc1ccncc1)Nc1ccc(-c2nc(N3CC4CCC(C3)O4)c3sccc3n2)cc1 | 10 | – | 182 | 0.44 |
| Nc1ccc(-c2nc(N3CC4CCC(C3)O4)c3sccc3n2)cc1 | – | > 10000 | – | – |
| CN1CCN(Cc2cc3nc(-c4ccc(NC(=O)Nc5ccncc5)cc4)nc(N4CC5CCC(C4)O5)c3s2)CC1 | 200 | – | 23 | – |
| Oc1cccc(-c2nc(N3CC4CCC(C3)O4)c3sccc3n2)c1 | – | – | – | 58 |
| O=C(Nc1ccc(-c2nc(N3CC4CCC(C3)O4)c3sccc3n2)cc1)NC1CC1 | 40 | – | 2010 | 0.68 |
| O=C(NCCF)Nc1ccc(-c2nc(N3CC4CCC(C3)O4)c3sccc3n2)cc1 | 87 | – | 1110 | 0.7 |
| Oc1cccc(-c2nc(N3CCOCC3)c3sccc3n2)c1 | 1300 | 41 | 0.9 | 49 |
